From publication PMC11447181 (Nature Communications, 2024)
Several values for one entry are separate records, joined by “and”; a condition that tells them apart may be missing. Equal entries are not always repeated. Entries after “also recorded” stand apart in the source; their conditions may differ.

What was measured:
[1] = system: MFSD1; conditions: negative control; thiamine titration 1.95 μM to 2 mM
Description: (§1) The thermal stability of the hSLC19A3 constructs and their binding affinities for small molecules were determined by nanoDSF, using a Prometheus NT.48 (NanoTemper Technologies). For sample preparation, the protein was diluted to a final concentration of 4 μM in SEC buffer and supplied with the respective compounds in a concentration range from 2 μM to 2 mM. Before measurement, the samples were incubated for 30 min at room temperature. Melting scans were performed at a temperature range from 20 to 95 °C with a temperature increment of 1 °C per minute. Thermal unfolding curves were recorded by measuring the ratio of the tryptophan-fluorescence at 350 nm (F350) and 330 nm (F330). The protein melting temperature (Tm) of a given sample was determined as the inflection point of the thermal unfolding curves, or the local maximum of its first derivative. The measured curves were analysed using the manufacturer’s software (PR.ThermControl, v 2.1.2, NanoTemper Technologies). Based on the determined Tm values, ligand induced thermal shifts (ΔTm) were determined as the difference between the melting temperature of the ligand-bound state (Tm) and the apo state (Tm^apo).

[2] = system: OCT1 (SLC22A1); conditions: read-out: Km (thiamine uptake); cited from earlier work
[3] = system: SLC19A2; conditions: read-out: Km (thiamine uptake); cited from earlier work
[4] = target: hSLC19A3 F56A (Homo sapiens, UniProt Q9BZV2, F56A); test: biochemical
Chain of hSLC19A3 F56A (Q9BZV2 with tags, fused parts or gaps F56A): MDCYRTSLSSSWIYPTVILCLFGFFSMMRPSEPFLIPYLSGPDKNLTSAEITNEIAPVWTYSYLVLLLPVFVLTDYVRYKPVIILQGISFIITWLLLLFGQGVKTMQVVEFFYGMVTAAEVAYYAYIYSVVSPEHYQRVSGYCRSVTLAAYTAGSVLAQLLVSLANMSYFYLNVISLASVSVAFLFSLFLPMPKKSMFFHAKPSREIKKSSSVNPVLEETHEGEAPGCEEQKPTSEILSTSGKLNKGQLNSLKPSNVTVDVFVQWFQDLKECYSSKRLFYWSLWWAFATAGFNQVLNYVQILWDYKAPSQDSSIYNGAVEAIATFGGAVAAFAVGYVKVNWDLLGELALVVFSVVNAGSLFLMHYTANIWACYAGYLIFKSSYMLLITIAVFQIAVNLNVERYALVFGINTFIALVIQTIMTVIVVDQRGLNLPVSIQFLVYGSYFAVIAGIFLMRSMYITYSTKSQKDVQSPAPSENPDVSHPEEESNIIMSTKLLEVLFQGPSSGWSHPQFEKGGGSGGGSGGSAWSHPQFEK
Description: as §1
(§2) As R, Tstd and L are known and the ΔTm and Tm^apo are experimentally determined, non-linear curve fitting can be used to estimate Ea1 and Kd,app. The fitting was performed using symfit (v. 0.5.3), as described in Kotov et al., based on theoretical considerations formulated in Hall, 2019[56].

[5] = target: hSLC19A3 Q300A (Homo sapiens, UniProt Q9BZV2, Q300A); test: biochemical
Chain of hSLC19A3 Q300A (Q9BZV2 with tags, fused parts or gaps Q300A): as the sequence (Q9BZV2 with tags, fused parts or gaps F56A) above, with A56F, Q300A counted along it
Description: as §1, §2

[6] = target: hSLC19A3 W59A (Homo sapiens, UniProt Q9BZV2, W59A); test: biochemical
Chain of hSLC19A3 W59A (Q9BZV2 with tags, fused parts or gaps W59A): as the sequence (Q9BZV2 with tags, fused parts or gaps F56A) above, with A56F, W59A counted along it
Description: as §1, §2

[7] = target: hSLC19A3-E110Q (Homo sapiens, UniProt Q9BZV2, E110Q); test: biochemical; conditions: Kd,app for thiamine, E110Q mutant; n = 3
Chain of hSLC19A3-E110Q (Q9BZV2 with tags, fused parts or gaps E110Q): as the sequence (Q9BZV2 with tags, fused parts or gaps F56A) above, with A56F, E110Q counted along it
Description: as §1, §2

[8] = target: hSLC19A3-Glu32Lys (Homo sapiens, UniProt Q9BZV2, E32K); test: biochemical; conditions: E32K mutant
Chain of hSLC19A3-Glu32Lys (Q9BZV2 with tags, fused parts or gaps E32K): as the sequence (Q9BZV2 with tags, fused parts or gaps F56A) above, with E32K, A56F counted along it
Description: as §1, §2

[9] = target: hSLC19A3 Y113A (Homo sapiens, UniProt Q9BZV2, Y113A); test: biochemical
Chain of hSLC19A3 Y113A (Q9BZV2 with tags, fused parts or gaps Y113A): as the sequence (Q9BZV2 with tags, fused parts or gaps F56A) above, with A56F, Y113A counted along it
Description: as §1, §2

[10] = target: hSLC19A3 Thr422Ala (Homo sapiens, UniProt Q9BZV2, T422A); test: biochemical
Chain of hSLC19A3 Thr422Ala (Q9BZV2 with tags, fused parts or gaps T422A): as the sequence (Q9BZV2 with tags, fused parts or gaps F56A) above, with A56F, T422A counted along it
Description: as §1, §2

[11] = target: hSLC19A3 Y151A (Homo sapiens, UniProt Q9BZV2, Y151A); test: biochemical
Chain of hSLC19A3 Y151A (Q9BZV2 with tags, fused parts or gaps Y151A): as the sequence (Q9BZV2 with tags, fused parts or gaps F56A) above, with A56F, Y151A counted along it
Description: as §1, §2

[12] = target: hSLC19A3-Glu320Gln (Homo sapiens, UniProt Q9BZV2, E320Q); test: biochemical
Chain of hSLC19A3-Glu320Gln (Q9BZV2 with tags, fused parts or gaps E320Q): as the sequence (Q9BZV2 with tags, fused parts or gaps F56A) above, with A56F, E320Q counted along it
Description: as §1, §2

[13] = target: hSLC19A3-Lys44Glu (Homo sapiens, UniProt Q9BZV2, K44E); test: biochemical
Chain of hSLC19A3-Lys44Glu (Q9BZV2 with tags, fused parts or gaps K44E): as the sequence (Q9BZV2 with tags, fused parts or gaps F56A) above, with K44E, A56F counted along it
Description: as §1, §2

[14] = target: hSLC19A3 Y151F (Homo sapiens, UniProt Q9BZV2, Y151F); test: biochemical
Chain of hSLC19A3 Y151F (Q9BZV2 with tags, fused parts or gaps Y151F): as the sequence (Q9BZV2 with tags, fused parts or gaps F56A) above, with A56F, Y151F counted along it
Description: as §1, §2

[15] = target: hSLC19A3-gf (N45Q, N166Q) (Homo sapiens, UniProt Q9BZV2, N166Q/N45Q); test: biochemical
Chain of hSLC19A3-gf (N45Q, N166Q) (Q9BZV2 with tags, fused parts or gaps N45Q/N166Q): as the sequence (Q9BZV2 with tags, fused parts or gaps F56A) above, with N45Q, A56F, N166Q counted along it
Description: as §1, §2

[16] = system: SLC19A3; conditions: cited from earlier work
[17] = target: hSLC19A3 N297A (Homo sapiens, UniProt Q9BZV2, N297A); conditions: N297A mutant
Chain of hSLC19A3 N297A (Q9BZV2 with tags, fused parts or gaps N297A): as the sequence (Q9BZV2 with tags, fused parts or gaps F56A) above, with A56F, N297A counted along it
Description: as §1
As R, Tstd and L are known and the ΔTm and Tm^apo are experimentally determined, non-linear curve fitting can be used to estimate Ea1 and Kd,app. […]

[18] = target: T1, hSLC19A3-wt (Homo sapiens, UniProt Q9BZV2); test: nanoDSF thermal shift assay / apparent binding affinity, wildtype transporter
T1 construct: full-length, wildtype human SLC19A3; made in house; host or cells: Expi293F
T1 sequence (Q9BZV2 with tags, fused parts or gaps): as the sequence (Q9BZV2 with tags, fused parts or gaps F56A) above, with A56F counted along it

[19] = target: T2, hSLC19A3-wt overexpressed in Expi293F cells (Homo sapiens, UniProt Q9BZV2); test: Mass spectrometry-based cellular thiamine-d3 uptake assay; format: cell-based; conditions: 200 μM compound, 2 μM thiamine-d3, 5 min, n = 3
T2 construct: full-length, wildtype human SLC19A3; expressed in transfected cells; host or cells: Expi293F
T2 sequence (Q9BZV2 with tags, fused parts or gaps): as the sequence (Q9BZV2 with tags, fused parts or gaps F56A) above, with A56F counted along it
Description: The cells were then pelleted for 5 min at 250×g and resuspended in 1×PBS (pH 7.4) at a cell density of 2 million cells per mL. The cell suspension was subsequently transferred to a 96-deep well plate in three technical replicates per condition (n = 3, 1 mL per well, corresponding to 2 million cells per condition). 200 μM of the selected compounds were added to the respective wells and the cells were incubated for 1 min on a shaking platform. […] Afterwards, the cells were pelleted for 5 min at 500×g and washed 3× with 1 mL 1×PBS (pH7.4), before transferring them to a fresh 96-deep well plate. The cell pellets were stored at –70 °C. For the LC-MS/MS analysis, the samples were extracted by adding 500 µL of a mixture of H2O:MeOH:ACN (1:1:1, v/v), containing 5% (v/v) formic acid. After vortexing and ultrasonication in a water bath for 5 min at 4 °C, samples were incubated for 20 min at –20 °C. […] The supernatants were then transferred for LC-MS analysis, which was initiated within one hour after sample preparation. LC-MS/MS analysis was performed on a Vanquish UHPLC system coupled to an Orbitrap Exploris 240 high-resolution mass spectrometer (Thermo Fisher Scientific, MA, USA) in positive ESI (electrospray ionization) mode. Chromatographic separation was carried out on an Atlantis Premier BEH Z-HILIC column (Waters, MA, USA; 2.1 mm × 100 mm, 1.7 µm) at a flow rate of 0.25 mL/min. The mobile phase consisted of water:acetonitrile (9:1, v/v; mobile phase phase A) and acetonitrile:water (9:1, v/v; mobile phase B), which were modified with a total buffer concentration of 10 mM ammonium formate. The aqueous portion of each mobile phase was adjusted to pH 3.0 via addition of formic acid. The following gradient (8 min total run time including re-equilibration) was applied (time [min]/%B): 0/90, 3/85, 3.5/60, 4/60, 5/90, 8/90. Column temperature was maintained at 40 °C, the autosampler was set to 4 °C and sample injection volume was set to 3 µL. Analytes were recorded via a full scan with a mass resolving power of 120,000 over a mass range from 60 to 900 m/z (scan time: 100 ms, RF lens: 70%).
All experimental samples were measured in a randomized manner. Pooled quality control (QC) samples were prepared by mixing equal aliquots from each processed sample. Multiple QCs were injected at the beginning of the analysis in order to equilibrate the analytical system. A QC sample was analyzed after every 6th experimental sample to monitor instrument performance throughout the sequence. For determination of background signals and subsequent background subtraction, an additional processed blank sample was recorded. Data was processed using TraceFinder 5.1 and raw peak area data was exported for relative metabolite quantification.

[20] = clinical trial ID NCT01437787; cited from earlier work

Cc1ncc(C[n+]2csc(CCO)c2C)c(N)n1 [thiamine]
response to thiamine, in words [1]: shows no response to thiamine
Km [2]: ~780 µM
Km [3]: 2 to 7 µM
Kd [4]: 4 ± 0.3 µM
Kd [5]: 5.6 ± 1.4 µM
Kd [6]: 8.3 ± 1 µM
effect of mutation on thiamine binding, in words ([6]; W59A mutant (aromatic clamp)): did not impair thiamine binding
Kd [7]: 85 µM and 85.2 µM and ~85 µM
drop in affinity for thiamine versus wildtype [8]: 10 fold and > 10 fold
Kd ([8]; Kd,app for thiamine, n = 3): 145 µM
Kd [9]: 15.5 ± 2 µM
effect of mutation on thiamine binding, in words ([9]; Y113A mutant (aromatic clamp)): did not impair thiamine binding
Kd [10]: 172 ± 35 µM
Kd [11]: 17.8 ± 1.8 µM
Kd [12]: 284 ± 45 µM
decrease in affinity for thiamine versus wildtype ([12]; E320Q mutant): 20 fold
Kd [13]: 2.1 ± 0.1 µM
affinity for thiamine versus wildtype ([13]; K44E mutant): six-fold higher affinity
Kd [14]: 18.7 ± 9.1 µM
effect of mutation on thiamine affinity, in words ([14]; Y151F mutant): no strong effect on the affinity for thiamine was observed
Kd [15]: 10.4 ± 0.9 µM
effect of the glycosylation-site mutations on thiamine binding, in words ([15]; thermal stability experiments): did not show any interference of these mutations with thiamine binding
Km ([16]; read-out: Km (thiamine uptake)): 2 to 7 µM
loss in binding affinity for thiamine versus wildtype [17]: ~ 250 fold
Kd ([18]; Kd,app (apparent dissociation constant), concentration-dependent thermal shifts, fitted for 25 °C, n = 3, mean ± s.d.): ~12 µM and 12.7 µM
ΔTm at 2000 µM ([18]; read-out: ΔTm (thermal stabilisation of hSLC19A3)): 10.9 ± 0.3 °C
thermal shift / interaction with hSLC19A3, in words ([18]; thermal shift screen at 20 μM and 200 μM compound): induces a strong stabilisation; also recorded: strong stabilisation of the transporter

Cc1cnc(Nc2ccc(OCCN3CCCC3)cc2)nc1Nc1cccc(S(=O)(=O)NC(C)(C)C)c1 [fedratinib]
inhibition of thiamine uptake through hSLC19A3, in words [19]: strongly suppressed the thiamine transport activity of hSLC19A3
adverse event in patients [20]: induced the development of Wernicke’s encephalopathy
substrate status at the transporter [16]: xenobiotic substrates of the transporter
